Results taken from patent publication US6858714B2, “Cyclic GMP phosphodiesterase” (Incyte Corporation, priority 1997, dated 2005).

Legend:
PDE9A [1] = molecular target: T1, PDE9A (Homo sapiens, UniProt O76083); assay: Kinetics of enzyme activity of recombinant PDE9A (Lineweaver-Burke analysis); assay type: biochemical; settings: FIG. 3, read-out: Km of PDE9A for cGMP as substrate
T1 construct: A 1.8 kb region of PDE9A encoding the full length protein (nucleotides 61-1842) was amplified and cloned; made in house; host or cells: Sf9 insect cells (baculovirus, pFASTBAC)

PDE9A [2] = molecular target: T1, PDE9A; assay: Effect of known PDE inhibitors on PDE9A activity (hydrolysis of 3H-cGMP); assay type: biochemical; settings: cGMP as substrate, FIG. 5; for inhibition of PDE9A activity: up to 100 μM of inhibitor
Procedure: A 1.8 kb region of PDE9A encoding the full length of the protein was cloned into the baculovirus transfer vector pFASTBAC, expressed in sf9 cells, and a cell lysate prepared from these cells for enzyme assays. […] PDE9A was not inhibited by up to 100 μM of rolipram (inhibitor of PDE4), dipyridamole (inhibitor of PDE2, 4, 5, and 6), SKF94120 (inhibitor of PDE3), vinpocetine (inhibitor of PDE1), or IBMX (non-specific PDE inhibitor). […] Of particular note is the expression of PDE9A in Crohn's disease.
PDE9A to be used for assay was prepared from transfected Sf9 cells. Cells were harvested by centrifugation, resuspended in homogenization buffer (20 mM Tris-HCl, 2 mM benzamidine, 1 mM EDTA, 0.25 M sucrose, 100 uM PMSF, pH 7.5 ) at 1×10^7 cells/ml, and disrupted using a Branson sonicating probe (3×10 second pulses). Cellular debris was removed by centrifugation at 14,000×g for 10 minutes. The supernatant was stored at −70° C.
PDE activity was assayed by measuring the conversion of ^3H-cGMP to ^3H-guanosine in the presence of PDE9A and 5′ nucleotidase. A one-step assay was run using a 100 uL assay containing 50 mM Tris-HCl pH 7.5, 10 mM MgCl^2, 0.1 unit 5′ nucleotidase (from Crotalus atrox venom), and 0.0064-2.0 uM ^3H-cGMP. The reaction was started by the addition of 25 μl of diluted enzyme supernatant. Reactions were run directly in mini Poly-Q scintillation vials (Beckman Instruments Inc., Fullerton Calif.). Assays were incubated at 37° C. for a time period that would yield less than 15% cGMP hydrolysis in order to avoid non-linearity associated with product inhibition. The reaction was stopped by the addition of 1 ml of Dowex AG1x8 (Cl form) resin (1:3 slurry). Three ml of scintillation fluid were added, and the vials were mixed. The resin in the vials was allowed to settle for 1 hr before counting. Soluble radioactivity associated with ^3H-guanosine was quantitated using a Beta scintillation counter. The amount of radioactivity recovered is proportional to the activity of PDE9A in the reaction.

T1 sequence (O76083 whole entry): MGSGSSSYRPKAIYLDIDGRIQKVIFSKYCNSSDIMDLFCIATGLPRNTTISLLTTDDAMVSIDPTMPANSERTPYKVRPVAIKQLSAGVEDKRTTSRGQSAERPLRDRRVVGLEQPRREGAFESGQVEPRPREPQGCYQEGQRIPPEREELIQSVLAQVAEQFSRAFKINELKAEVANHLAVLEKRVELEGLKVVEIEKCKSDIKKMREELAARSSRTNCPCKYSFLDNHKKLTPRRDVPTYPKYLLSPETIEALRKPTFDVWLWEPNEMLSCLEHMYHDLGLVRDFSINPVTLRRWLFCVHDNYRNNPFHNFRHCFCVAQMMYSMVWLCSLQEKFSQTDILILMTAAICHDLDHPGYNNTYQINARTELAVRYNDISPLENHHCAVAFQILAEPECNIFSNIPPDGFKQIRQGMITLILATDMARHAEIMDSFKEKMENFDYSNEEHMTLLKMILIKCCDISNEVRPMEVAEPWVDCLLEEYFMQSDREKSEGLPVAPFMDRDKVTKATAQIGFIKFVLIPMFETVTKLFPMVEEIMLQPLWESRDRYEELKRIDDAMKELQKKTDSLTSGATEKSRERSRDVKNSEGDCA

Structure (SMILES)	inhibition of PDE9A activity (PDE9A [2])	also measured
Nc1nc2c(ncn2[C@@H]2O[C@@H]3COP(=O)(O)O[C@H]3[C@H]2O)c(=O)[nH]1 [cGMP]		Km (PDE9A [1]): 0.17 µM
CCCOc1ccccc1-c1nc2nn[nH]c2c(=O)[nH]1 [zaprinast]		IC50 (PDE9A [2]; recombinant PDE9A from Sf9 cell lysate, read-out: IC50 for inhibition of PDE9A): 35 µM
CC(C)Cn1c(=O)n(C)c(=O)c2[nH]cnc21 [IBMX]	not inhibited	
CC(=O)Nc1ccc(-c2c[nH]c(=O)cn2)cc1 [SKF94120]	not inhibited	
CCOC(=O)C1=C[C@]2(CC)CCCN3CCc4c(n1c1ccccc41)[C@@H]32 [vinpocetine]	not inhibited	
OCCN(CCO)c1nc(N2CCCCC2)c2nc(N(CCO)CCO)nc(N3CCCCC3)c2n1 [dipyridamole]	not inhibited	
COc1ccc(C2CNC(=O)C2)cc1OC1CCCC1 (stereo not shown) [rolipram]	not inhibited	
